Reference: US20240174680A1, “CDK2 INHIBITORS AND METHODS OF USING THE SAME” (Cedilla Therapeutics, Inc., priority 2021, published 2024)

Molecular target: CDK2/Cyclin E1 (Homo sapiens, UniProt P24941)
Assay: CDK2/Cyclin E1 Caliper LabChip EZ Reader mobility shift assay
Format: biochemical
Set-up: purchased Eurofins 14-475
Conditions: read-out: Caliper Assay (CDK2/CCNE1): IC50
Summary of the method: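 Mobility-shift kinase assay: compound titrations preincubated 30 min with enzyme and ATP, reaction started with 5-FAM-QSPKKG-CONH2 peptide. Final 2.5 nM CDK2/Cyclin E1, 100 μM ATP, 1.5 μM peptide, HEPES pH 7.5; stopped with EDTA after 100 min. IC50 from four-parameter fit of normalized conversion ratio.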

SMILES	IC50
CNC(=O)[C@@H](NC(=O)[C@@H]1CN(C(=O)c2cnn(CC3CCNCC3)c2)CC12CN(C(=O)[C@H]1CC1(C)C)C2)[C@@H](C)OCc1ccccc1 [I-19A]	100 to 1000 nM
CNC(=O)[C@@H](NC(=O)[C@H]1CN(C(=O)c2cnn(Cc3ccccc3)c2)CC12CN(C(=O)C(C)(C)F)C2)[C@@H](C)OCc1ccccc1 [I-90B]	> 10000 nM
C[C@@H](OCC1CCCCC1)[C@H](NC(=O)[C@@H]1CN(C(=O)c2cnn(Cc3ccccc3)c2)CC12CN(C(=O)[C@H]1CC1(C)C)C2)C(=O)N1CCOCC1 [I-152A]	≤ 10 nM
COc1cccc(CNC(=O)[C@H]2CN(C(=O)c3cnn(Cc4ccccc4)c3)CC23CN(C(=O)[C@H]2CC2(C)C)C3)n1 [I-126B]	> 10000 nM
CC1(C)C[C@@H]1C(=O)N1CC2(CN(C(=O)c3cnn(Cc4ccccc4)c3)C[C@H]2C(=O)N[C@H]2C[C@@H]2c2cccc(Cl)c2)C1 [I-140A]	100 to 1000 nM
CNC(=O)[C@@H](NC(=O)[C@H]1CN(C(=O)c2cnn(Cc3ccccc3)c2)CC12CN(C(=O)C(C)C)C2)[C@@H](C)OCc1ccccc1 [I-54B]	> 10000 nM
CNC(=O)[C@@H](NC(=O)[C@H]1CN(C(=O)c2cnn(Cc3ccccc3)c2)CC12CN(C(=O)C1(C)CC1)C2)[C@@H](C)OCc1ccccc1 [I-67B]	> 10000 nM
CNC(=O)[C@@H](NC(=O)[C@@H]1CN(C(=O)c2cnn(Cc3ccccc3)c2)CC12CN(C(=O)CC1(CO)CC1)C2)[C@@H](C)OCc1ccccc1 [I-92A]	> 10000 nM
CNC(=O)[C@@H](NC(=O)[C@@H]1CN(C(=O)c2cnn(CC3CCOCC3)c2)CC12CN(C(=O)[C@H]1CC1(C)C)C2)[C@@H](C)OCC1CCCCC1 [I-121A]	10 to 100 nM
CNC(=O)[C@@H](NC(=O)[C@H]1CN(C(=O)c2cnn(Cc3ccc(F)cc3)c2)CC12CN(C(=O)[C@H]1CC1(C)C)C2)[C@@H](C)OCc1ccc(F)cc1 [I-136B]	100 to 1000 nM
C[C@@H](OCC1CCCCC1)[C@H](NC(=O)[C@H]1CN(C(=O)c2cnn(Cc3ccccc3)c2)CC12CN(C(=O)[C@H]1CC1(C)C)C2)C(=O)N1CCOCC1 [I-152B]	1000 to 10000 nM
CNC(=O)[C@@H](NC(=O)C1CN(C(=O)c2cnn(Cc3cccnc3)c2)CC12CN(C(=O)C1CC1(C)C)C2)[C@@H](C)OCc1ccccc1 (some centres unmarked) [I-15]	100 to 1000 nM
CCCC(=O)N1CC2(C1)CN(C(=O)c1cnn(Cc3ccccc3)c1)C[C@H]2C(=O)N[C@H](C(=O)NC)[C@@H](C)OCc1ccccc1 [I-60A]	1000 to 10000 nM
C[C@@H](OCc1ccccc1)[C@H](NC(=O)C1CN(C(=O)c2cnn(Cc3ccccc3)c2)CC12CN(C(=O)[C@H]1CC1(C)C)C2)C(=O)NCCC(=O)O (some centres unmarked) [I-29]	100 to 1000 nM
COC(=O)C1(NC(=O)[C@H]2CN(C(=O)c3cnn(Cc4ccccc4)c3)CC23CN(C(=O)[C@H]2CC2(C)C)C3)COC1 [I-142A]	> 10000 nM
CO[C@H]1COCC[C@@H]1NC(=O)[C@H]1CN(C(=O)c2cnn(Cc3ccccc3)c2)CC12CN(C(=O)[C@H]1CC1(C)C)C2 [I-148B]	> 10000 nM
CC1(C)C[C@@H]1C(=O)N1CC2(CN(C(=O)c3cnn(Cc4ccccc4)c3)C[C@H]2C(=O)NCCOCc2ccccc2)C1 [I-96A]	100 to 1000 nM
C[C@@H](OCc1ccccc1)C(NC(=O)C1CN(C(=O)c2cnn(Cc3ccccc3)c2)CC12CN(C(=O)[C@H]1CC1(C)C)C2)C(=O)NCCOCCOCCO (some centres unmarked) [I-21]	10 to 100 nM
CNC(=O)[C@@H](NC(=O)[C@H]1CN(C(=O)C2CCNC2)CC12CN(C(=O)[C@H]1CC1(C)C)C2)[C@@H](C)OCc1ccccc1 (some centres unmarked) [I-70B]	> 10000 nM
C[C@@H](OCC1CCCCC1)[C@@H](CO)NC(=O)[C@@H]1CN(C(=O)c2cnn(Cc3ccccc3)c2)CC12CN(C(=O)[C@H]1CC1(C)C)C2 [I-135A]	10 to 100 nM
CNC(=O)[C@H](CCCc1ccccc1)NC(=O)[C@@H]1CN(C(=O)c2cnn(Cc3ccccc3)c2)CC12CN(C(=O)[C@H]1CC1(C)C)C2 [I-101A]	100 to 1000 nM
CNC(=O)[C@@H](NC(=O)[C@@H]1CN(Cc2ccccn2)CC12CN(C(=O)[C@H]1CC1(C)C)C2)[C@@H](C)OCc1ccccc1 [I-40A]	> 10000 nM

Other lines, results leading:

IC50	SMILES
> 10000 nM	CNC(=O)[C@@H](NC(=O)[C@@H]1CN(C(=O)c2cnn(Cc3ccccc3)c2)CC12CN(CC(=O)O)C2)[C@@H](C)OCC1CCCCC1 [I-294, 2-((S)-6-(1-benzyl-1H-pyrazole-4-carbonyl)-8-(((2S,3R)-3-(cyclohexylmethoxy)-1-(methylamino)-1-oxobutan-2-yl)carbamoyl)-2,6-diazaspiro[3.4]octan-2-yl)acetic acid]
10 to 100 nM	CNC(=O)[C@@H](NC(=O)[C@@H]1CN(C(=O)c2cnn(Cc3ccccc3)c2)CC12CN(C(=O)[C@H]1CC1(C)C)C2)[C@@H](C)OC[C@H]1CC[C@H](OC)CC1 [I-403]
> 10000 nM	CC1(C)C[C@@H]1C(=O)N1CC2(CN(C(=O)c3cnn(Cc4ccccc4)c3)C[C@H]2C(=O)N[C@H]2CCCN(CC3CCCCC3)C2)C1 [I-183]
> 10000 nM	CNC(=O)[C@@H](NC(=O)[C@H]1CN(C(=O)c2cnc(Cl)s2)CC12CN(C(=O)[C@H]1CC1(C)C)C2)[C@@H](C)OCC1CCCCC1 [I-189B]
≤ 10 nM	C[C@@H](OCC1CCCCC1)[C@H](NC(=O)[C@@H]1CN(C(=O)c2cnn(Cc3ccccc3)c2)CC12CN(C(=O)[C@H]1CC1(C)C)C2)C(=O)N1CCC(CN)CC1 [I-219]
10 to 100 nM	CC1(C)C[C@@H]1C(=O)N1CC2(CN(C(=O)c3cncs3)C[C@H]2C(=O)NCc2cccc(C3CCCCC3)n2)C1 [I-414]
100 to 1000 nM	C[C@@H](OCC1(C(F)(F)F)CC1)[C@H](NC(=O)[C@@H]1CN(C(=O)c2cncs2)CC12CN(C(=O)[C@H]1CC1(C)C)C2)C(=O)N1CCCCC1 [I-285]
1000 to 10000 nM	CN(C)C(=O)C(NC(=O)[C@@H]1CN(C(=O)c2cncs2)CC12CN(C(=O)C(C)(C)C1CC1)C2)c1cccc(C2CCOCC2)n1 (some centres unmarked) [I-340]
10 to 100 nM	CNC(=O)[C@@H](NC(=O)[C@@H]1CN(C(=O)c2sc(C)nc2C)CC12CN(C(=O)[C@H]1CC1(C)C)C2)[C@@H](C)OCC1CCCCC1 [I-213A]
100 to 1000 nM	CNC(=O)[C@@H](NC(=O)[C@@H]1CN(C(=O)c2cnn(Cc3ccccc3)c2)CC12CN(C(=O)N(C)C1CC1)C2)[C@@H](C)OCC1CCCCC1 [I-295]
≤ 10 nM	C[C@@H](OCC1CCCCC1)[C@H](NC(=O)[C@@H]1CN(C(=O)c2cncs2)CC12CN(C(=O)[C@H]1CC1(C)C)C2)C(=O)N1CCOCC1 [I-198]
≤ 10 nM	C[C@@H](OCC1CCCCC1)[C@H](NC(=O)[C@@H]1CN(C(=O)c2cnn(Cc3ccccc3)c2)CC12CN(C(=O)[C@H]1CC1(C)C)C2)C(=O)N1CCC(c2ncc[nH]2)CC1 [I-446]
100 to 1000 nM	CNC(=O)[C@@H](NC(=O)[C@@H]1CN(C(=O)c2cnc(C3CC3)s2)CC12CN(C(=O)[C@H]1CC1(C)C)C2)[C@@H](C)OCC1CCCCC1 [I-178A]
≤ 10 nM	C[C@@H](OCC1CCC(F)(F)CC1)[C@H](NC(=O)[C@@H]1CN(C(=O)c2cncs2)CC12CN(C(=O)[C@H]1CC1(C)C)C2)C(C)(C)O [I-313]
100 to 1000 nM	CC1(C)C[C@@H]1C(=O)N1CC2(CN(C(=O)c3cncs3)C[C@H]2C(=O)NC(c2cccc(C3CCCCC3)n2)P(C)(C)=O)C1 (some centres unmarked) [I-494]
≤ 10 nM	C[C@@H](OCC1CCCCC1)[C@@H](COC1CCCCC1)NC(=O)[C@@H]1CN(C(=O)c2cncs2)CC12CN(C(=O)[C@H]1CC1(C)C)C2 [I-308]

IC50	SMILES
≤ 10 nM	C[C@@H](OCC1CCCCC1)[C@H](NC(=O)[C@@H]1CN(C(=O)c2cnn(Cc3ccccc3)c2)CC12CN(C(=O)[C@H]1CC1(C)C)C2)C(=O)N1CCC(c2cc[nH]n2)CC1 [I-443]
≤ 10 nM	C[C@@H](OCC1CCCCC1)[C@H](NC(=O)[C@@H]1CN(C(=O)c2cnn(Cc3ccccc3)c2)CC12CN(C(=O)[C@H]1CC1(C)C)C2)C(=O)N1CCC(n2cccn2)CC1 [I-439]
10 to 100 nM	Cc1nc(C)c(C(=O)N2C[C@@H](C(=O)N[C@H](C(=O)N3CCC(OC(F)(F)F)CC3)[C@@H](C)OCC34CCC(CC3)OC4)C3(C2)CN(C(=O)[C@H]2CC2(C)C)C3)s1 [I-455]
10 to 100 nM	CC1(C)C[C@@H]1C(=O)N1CC2(CN(C(=O)c3cncs3)C[C@H]2C(=O)NC(c2cccc(C3CCCCC3)n2)C2COCCO2)C1 (some centres unmarked) [I-496]
100 to 1000 nM	C[C@H](OC1CCN(C(=O)[C@@H]2CN(C(=O)c3cnn(Cc4ccccc4)c3)CC23CN(C(=O)[C@H]2CC2(C)C)C3)CC1)c1ccccc1 [I-275]
100 to 1000 nM	CNC(=O)[C@H](CSCc1ccccc1)NC(=O)[C@@H]1CN(C(=O)c2cnn(Cc3ccccc3)c2)CC12CN(C(=O)[C@H]1CC1(C)C)C2 [I-225]
100 to 1000 nM	COC[C@H]1CCCN(C(=O)[C@@H](NC(=O)[C@@H]2CN(C(=O)c3cncs3)CC23CN(C(=O)C(C)(C)C2CC2)C3)[C@@H](C)OC[C@H]2CC[C@H](O)CC2)C1 [I-431]
> 10000 nM	CC1(C)C[C@@H]1C(=O)N1CC2(CN(C(=O)c3cnn(Cc4ccccc4)c3)C[C@H]2C(=O)N[C@H]2CCN(C3CC3)C2=O)C1 [I-243]
≤ 10 nM	C[C@@H](OCC1CCCCC1)[C@H](NC(=O)C1CN(C(=O)c2cnn(Cc3ccccc3)c2)CC12CN(C(=O)[C@H]1CC1(C)C)C2)C(=O)NCCC(=O)O (some centres unmarked) [I-353]
≤ 10 nM	C[C@@H](OCC12CCC(CC1)CC2)[C@H](NC(=O)[C@@H]1CN(C(=O)c2cncs2)CC12CN(C(=O)[C@H]1CC1(C)C)C2)C(C)(C)O [I-304]
> 10000 nM	CNC(=O)[C@@H](NC(=O)[C@H]1CN(C(=O)c2cncs2)CC12CN(C(=O)C(C)(C)C)C2)[C@@H](C)OCC1CCCCC1 [I-186B]
≤ 10 nM	C[C@@H](OCC1CCCCC1)[C@@H](COCC1CCCCC1)NC(=O)[C@@H]1CN(C(=O)c2cncs2)CC12CN(C(=O)[C@H]1CC1(C)C)C2 [I-282]
≤ 10 nM	C[C@@H](OCC1CCCCC1)[C@H](NC(=O)[C@@H]1CN(C(=O)c2ccns2)CC12CN(C(=O)[C@H]1CC1(C)C)C2)C(=O)N1CCCCC1 [I-217]
1000 to 10000 nM	CNC(=O)[C@@H](NC(=O)[C@H]1CN(C(=O)c2cnc(CC3CC3)s2)CC12CN(C(=O)[C@H]1CC1(C)C)C2)[C@@H](C)OCC1CCCCC1 [I-177B]
> 10000 nM	CC1(C)C[C@@H]1C(=O)N1CC2(CN(C(=O)c3cnn(Cc4ccccc4)c3)C[C@H]2C(=O)NC2CCNC(=O)C2)C1 (some centres unmarked) [I-223]
